Results taken from patent publication US10457707B2, “Substituted urea depsipeptide analogs as activators of the CLPP endopeptidase” (priority 2015, dated 2019).
≈ marks a conversion by molar mass, not a printed value. Where two headings read alike, the source gives them in different places. *1 amine or outer side, *2 acyl side, *3 side chain or, on linkers, in order; H or OH if unused. Where a SMILES comes first, the peptide text is derived from it. Bridges are numbered along the chain shown (N, C = ends). [ ]: non-standard residue; d: D form. The star is where a group is joined. NH(1,3-benzodioxol-5-yl) = c1cc2c(cc1N*)OCO2; Phe(3,5-F2) = N[C@@H](Cc1cc(F)cc(F)c1)C(=O)O; NH(4-OCF3-phenyl) = FC(F)(F)Oc1ccc(N*)cc1; Morpholine(3S-CO) = O=C(O)[C@@H]1COCCN1; Pro(4S-Me) = C[C@@H]1CN[C@H](C(=O)O)C1; NH(4-Cl-2-F-phenyl) = Fc1cc(Cl)ccc1N*; Pro(4R-Me) = C[C@H]1CN[C@H](C(=O)O)C1; NMeaThr = CN[C@H](C(=O)O)[C@H](C)O; Hyp = O=C(O)[C@@H]1C[C@@H](O)CN1; Heptenoyl(2E) = CCCC/C=C/C(=O)*; NH(4-Me-phenyl) = Cc1ccc(N*)cc1; aThr = C[C@H](O)[C@H](N)C(=O)O; Pip = O=C(O)[C@@H]1CCCCN1; X4 = c1cc2c(cc1N*)CCC2; CO = O=C([*:1])[*:2]; X7 = CC/C=C/C(=O)*

Legend:
[1] = test system: Streptococcus pneumoniae, R6; experiment: Minimal inhibitory concentration assay; format: cell-based; settings: read-out: Minimal Inhibitory Concentrations S. pneumoniae R6
Outline: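 Microbroth dilution with two-fold serial compound dilutions in broth, incubated aerobically overnight at 37° C. MIC taken as the lowest concentration preventing bacterial growth.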

Sa-ClpP = molecular target: T1, Sa-ClpP (Staphylococcus aureus, UniProt Q2G036); experiment: Sa-ClpP casein-BODIPY ClpP activation assay, method variant not marked in Table 5; format: biochemical, S. aureus
T1 construct: made in house; host or cells: E. coli BL21(DE3)
T1 sequence (Q2G036 1-195): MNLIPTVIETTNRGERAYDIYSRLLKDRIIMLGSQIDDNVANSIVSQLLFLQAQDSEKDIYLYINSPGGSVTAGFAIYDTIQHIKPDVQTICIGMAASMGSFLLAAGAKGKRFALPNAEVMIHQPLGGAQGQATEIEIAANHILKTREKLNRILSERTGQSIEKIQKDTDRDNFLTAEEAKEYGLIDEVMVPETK
Outline: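 Purified S. aureus ClpP (10 μM) incubated with 25 μg/ml BODIPY FL casein and compound (0-1000 μM) in pH 8 Tris/KCl/TCEP at 37° C. Fluorescence (485/528 nm) read every 5 min over 45 min; reaction velocities fitted to dose-response for EC50 (50% activation), triplicate.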

[2] = values without ** or † mark, assay variant not stated, read-out: ClpP Activation EC50

## Cc1ccc(NC(=O)N[C@@H](Cc2cc(F)cc(F)c2)C(=O)N[C@H]2COC(=O)[C@@H]3C[C@@H](C)CN3C(=O)[C@H](C)NC(=O)C3CCCCN3C(=O)[C@@H]3C[C@@H](O)CN3C2=O)cc1 (stereo partly drawn) [Compound 323, (S)-3-(3,5-difluorophenyl)-N-((2R,6S,8aR,14aS,16R,20S,23aS)-16-hydroxy-2,6-dimethyl-5,8,14,19,23-pentaoxooctadecahydro-1H,5H,14H,19H-pyrido[2,1-i]dipyrrolo[2,1-c:2′,1′-l][1]oxa[4,7,10,13]tetraazacyclohexadecin-20-yl)-2-(3-(p-tolyl)ureido)propanamide]
[1]
  MIC: 0.078 µM (≈ 0.0632 µg/mL)
Sa-ClpP; [2]
  EC50: 670 ± 20 nM

## Cc1ccc(NC(=O)N[C@@H](Cc2cc(F)cc(F)c2)C(=O)N[C@@H]2C(=O)N3CCC[C@H]3C(=O)N(C)[C@@H]([C@H](C)O)C(=O)N[C@@H](C)C(=O)N3C[C@@H](C)C[C@H]3C(=O)O[C@H]2C)cc1 [Compound 202, (S)-3-(3,5-difluorophenyl)-N-((2S,6S,9S,11aS,17S,18S,20aS)-9-((S)-1-hydroxyethyl)-2,6,10,18-tetramethyl-5,8,11,16,20-pentaoxohexadecahydro-1H,5H,16H-dipyrrolo[2,1-c:2′,1′-L][1]oxa[4,7,10,13]tetraazacyclohexadecin-17-yl)-2-(3-(p-tolyl)ureido)propanamide] ({NH(4-Me-phenyl)-CO}-[Phe(3,5-F2)][aThr]P[NMeaThr]A[Pro(4S-Me)]; ester 2-C)
[1]
  MIC: 0.049 µM (≈ 0.0398 µg/mL)
Sa-ClpP; [2]
  EC50: 480 ± 30 nM

## Cc1ccc(NC(=O)N[C@@H](Cc2cc(F)cc(F)c2)C(=O)N[C@@H]2C(=O)N3CCC[C@H]3C(=O)N3CCCC[C@H]3C(=O)N[C@@H](C)C(=O)N3C[C@H](C)C[C@H]3C(=O)O[C@H]2C)cc1 [Compound 209, (S)-3-(3,5-difluorophenyl)-2-(3-(p-tolyl)ureido)-N-((2R,6S,8aS,14aS,20S,21S,23aS)-2,6,21-trimethyl-5,8,14,19,23-pentaoxooctadecahydro-1H,5H,14H,19H-pyrido[2,1-i]dipyrrolo[2,1-c:2′,1′-l][1]oxa[4,7,10,13]tetraazacyclohexadecin-20-yl)propanamide] ({NH(4-Me-phenyl)-CO}-[Phe(3,5-F2)][aThr]P[Pip]A[Pro(4R-Me)]; ester 2-C)
[1]
  MIC: 0.05 µM (≈ 0.0404 µg/mL)
Sa-ClpP; [2]
  EC50: 360 ± 30 nM

## CCCC/C=C/C(=O)N[C@@H](Cc1cc(F)cc(F)c1)C(=O)N[C@@H]1C(=O)N2C[C@H](O)C[C@H]2C(=O)N2CCOC[C@H]2C(=O)N[C@@H](C)C(=O)N2C[C@H](C)C[C@H]2C(=O)O[C@H]1C [Compound 309, (E)-N—((S)-3-(3,5-difluorophenyl)-1-(((6aS,8R,12S,13S,15aS,17R,21S,23aS)-8-hydroxy-13,17,21-trimethyl-6,11,15,20,23-pentaoxooctadecahydro-6H,11H,15H-[1,4]oxazino[3,4-i]dipyrrolo[2,1-c:2′,1′-l][1]oxa[4,7,10,13]tetraazacyclohexadecin-12-yl)amino)-1-oxopropan-2-yl)hept-2-enamide] ({Heptenoyl(2E)}-[Phe(3,5-F2)][aThr][Hyp][Morpholine(3S-CO)]A[Pro(4R-Me)]; ester 2-C)
Sa-ClpP; [2]
  EC50: 480 ± 20 nM

## C[C@@H]1C[C@H]2C(=O)O[C@@H](C)[C@H](NC(=O)[C@H](Cc3cc(F)cc(F)c3)NC(=O)Nc3ccc4c(c3)CCC4)C(=O)N3CCC[C@H]3C(=O)N3CCCC[C@H]3C(=O)N[C@@H](C)C(=O)N2C1 [Compound 302, (S)-3-(3,5-difluorophenyl)-2-(3-(2,3-dihydro-1H-INDEN-5-yl)ureido)-N-((2R,6S,8aS,14aS,20S,21S,23aS)-2,6,21-trimethyl-5,8,14,19,23-pentaoxooctadecahydro-1H,5H,14H,19H-pyrido[2,1-i]dipyrrolo[2,1-c:2′,1′-l][1]oxa[4,7,10,13]tetraazacyclohexadecin-20-yl)propanamide] ({X4-CO}-[Phe(3,5-F2)][aThr]P[Pip]A[Pro(4R-Me)]; ester 2-C)
Sa-ClpP; [2]
  EC50: 480 ± 10 nM

## CC/C=C/C(=O)N[C@@H](Cc1cc(F)cc(F)c1)C(=O)N[C@@H]1C(=O)N2C[C@H](O)C[C@H]2C(=O)N2CCCC[C@H]2C(=O)N[C@@H](C)C(=O)N2C[C@H](C)C[C@H]2C(=O)O[C@H]1C [Compound 300] (X7-[Phe(3,5-F2)][aThr][Hyp][Pip]A[Pro(4R-Me)]; ester 2-C)
Sa-ClpP; [2]
  EC50: 440 ± 30 nM

## C[C@@H]1C[C@H]2C(=O)O[C@@H](C)[C@H](NC(=O)[C@H](Cc3cc(F)cc(F)c3)NC(=O)Nc3ccc4c(c3)OCO4)C(=O)N3C[C@H](O)C[C@H]3C(=O)N3CCOC[C@H]3C(=O)N[C@@H](C)C(=O)N2C1 [Compound 319, (S)-2-(3-(benzo[d][1,3]dioxol-5-yl)ureido)-3-(3,5-difluorophenyl)-N-((6aS,8R,12S,13S,15aS,17R,21S,23aS)-8-hydroxy-13,17,21-trimethyl-6,11,15,20,23-pentaoxooctadecahydro-6H,11H,15H-[1,4]oxazino[3,4-i]dipyrrolo[2,1-c:2′,1′-l][1]oxa[4,7,10,13]tetraazacyclo-hexadecin-12-yl)propanamide] ({NH(1,3-benzodioxol-5-yl)-CO}-[Phe(3,5-F2)][aThr][Hyp][Morpholine(3S-CO)]A[Pro(4R-Me)]; ester 2-C)
Sa-ClpP
  EC50: 450 ± 40 nM

## C[C@@H]1C[C@H]2C(=O)O[C@@H](C)[C@H](NC(=O)[C@H](Cc3cc(F)cc(F)c3)NC(=O)Nc3ccc(Cl)cc3F)C(=O)N3CCC[C@H]3C(=O)N3CCCC[C@H]3C(=O)N[C@@H](C)C(=O)N2C1 [Compound 307, (S)-2-(3-(4-chloro-2-fluorophenyl)ureido)-3-(3,5-difluorophenyl)-N-((2R,6S,8aS,14aS,20S,21S,23aS)-2,6,21-trimethyl-5,8,14,19,23-pentaoxooctadecahydro-1H,5H,14H,19H-pyrido[2,1-i]dipyrrolo[2,1-c:2′,1′-l][1]oxa[4,7,10,13]tetraazacyclo-hexadecin-20-yl)propanamide] ({NH(4-Cl-2-F-phenyl)-CO}-[Phe(3,5-F2)][aThr]P[Pip]A[Pro(4R-Me)]; ester 2-C)
Sa-ClpP
  EC50: 440 ± 30 nM

## C[C@@H]1C[C@H]2C(=O)OC[C@H](NC(=O)[C@H](Cc3cc(F)cc(F)c3)NC(=O)Nc3ccc4c(c3)OCO4)C(=O)N3C[C@H](O)C[C@H]3C(=O)N3CCOC[C@H]3C(=O)N[C@@H](C)C(=O)N2C1 [Compound 318, (S)-2-(3-(benzo[d][1,3]dioxol-5-yl)ureido)-3-(3,5-difluorophenyl)-N-((6aS,8R,12S,15aS,17R,21S,23aS)-8-hydroxy-17,21-dimethyl-6,11,15,20,23-pentaoxooctadecahydro-6H,11H,15H-[1,4]oxazino[3,4-i]dipyrrolo[2,1-c:2′,1′-l][1]oxa[4,7,10,13]tetraazacyclo-hexadecin-12-yl)propanamide] ({NH(1,3-benzodioxol-5-yl)-CO}-[Phe(3,5-F2)]S[Hyp][Morpholine(3S-CO)]A[Pro(4R-Me)]; ester 2-C)
Sa-ClpP
  EC50: 460 ± 60 nM

## C[C@H]1C[C@H]2C(=O)O[C@@H](C)[C@H](NC(=O)[C@H](Cc3cc(F)cc(F)c3)NC(=O)Nc3ccc(OC(F)(F)F)cc3)C(=O)N3CCC[C@H]3C(=O)N3CCOC[C@H]3C(=O)N[C@@H](C)C(=O)N2C1 [Compound 201, (S)-3-(3,5-difluorophenyl)-2-(3-(4-(trifluoromethoxy)phenyl)ureido)-N-((6aS,12S,13S,15aS,17S,21S,23aS)-13,17,21-trimethyl-6,11,15,20,23-pentaoxooctadecahydro-6H,11H,15H-[1,4]oxazino[3,4-i]dipyrrolo[2,1-c:2′,1′-l][1]oxa[4,7,10,13]tetraazacyclohexadecin-12-yl)propanamide] ({NH(4-OCF3-phenyl)-CO}-[Phe(3,5-F2)][aThr]P[Morpholine(3S-CO)]A[Pro(4S-Me)]; ester 2-C)
Sa-ClpP; [2]
  EC50: 330 ± 10 nM

## CCCC/C=C/C(=O)N[C@@H](Cc1cc(F)cc(F)c1)C(=O)N[C@@H]1C(=O)N2C[C@H](O)C[C@H]2C(=O)N2CCCC[C@H]2C(=O)N[C@@H](C)C(=O)N2C[C@H](C)C[C@H]2C(=O)O[C@H]1C [Compound 301, (E)-N—((S)-3-(3,5-difluorophenyl)-1-(((2R,6S,8aS,14aS,16R,20S,21S,23aS)-16-hydroxy-2,6,21-trimethyl-5,8,14,19,23-pentaoxooctadecahydro-1H,5H,14H,19H-pyrido[2,1-i]dipyrrolo[2,1-c:2′,1′-l][1]oxa[4,7,10,13]tetraazacyclohexadecin-20-yl)amino)-1-oxopropan-2-yl)hept-2-enamide] ({Heptenoyl(2E)}-[Phe(3,5-F2)][aThr][Hyp][Pip]A[Pro(4R-Me)]; ester 2-C)
Sa-ClpP; [2]
  EC50: 420 ± 10 nM

## Cc1ccc(NC(=O)N[C@@H](Cc2cc(F)cc(F)c2)C(=O)N[C@H]2COC(=O)[C@@H]3C[C@@H](C)CN3C(=O)[C@H](C)NC(=O)[C@@H]3COCCN3C(=O)[C@@H]3C[C@@H](O)CN3C2=O)cc1 [Compound 317, (S)-3-(3,5-difluorophenyl)-N-((6aS,8R,12S,15aS,17R,21S,23aS)-8-hydroxy-17,21-dimethyl-6,11,15,20,23-pentaoxooctadecahydro-6H,11H,15H-[1,4]oxazino[3,4-i]dipyrrolo[2,1-c:2′,1′-l][1]oxa[4,7,10,13]tetraazacyclohexadecin-12-yl)-2-(3-(p-tolyl)ureido)propanamide] ({NH(4-Me-phenyl)-CO}-[Phe(3,5-F2)]S[Hyp][Morpholine(3S-CO)]A[Pro(4R-Me)]; ester 2-C)
Sa-ClpP; [2]
  EC50: 380 ± 30 nM
